Reference: the supplement of paper PMC11061612

Key:
Assay in all cases: combination Emax (second highest fraction inhibited in the dose matrix, 72 h); higher = more inhibition; extreme values may be limits of the assay
[1] = tested on: A2780 (Ovarian Carcinoma)
Summary of the method: (§1)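 Bliss excess equals the observed combination effect minus the expected value EA + EB − EA·EB, where EA and EB are the effects of each agent alone. Combination Emax is the second-highest inhibition within the matrix. Inhibition was scaled from CellTiter-Glo 2.0 luminescence, with 0 set by vehicle wells and 1 by blank wells, after 72 hours of two-drug dosing of cells plated in 1536-well plates.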

[2] = tested on: DU-4475 (Breast Carcinoma)
Summary of the method: as §1

IM-9 (Non-Cancerous) = tested on: IM-9 (Non-Cancerous)
Summary of the method: as §1

[3] = tested on: OACp4C (Esophageal Adenocarcinoma)
Summary of the method: as §1

[4] = tested on: KYSE-220 (Esophageal Squamous Cell Carcinoma)
Summary of the method: as §1

[5] = tested on: huH-1 (Hepatocellular Carcinoma)
Summary of the method: as §1

[6] = tested on: SK-HEP-1 (Hepatocellular Carcinoma)
Summary of the method: as §1

[7] = tested on: KYSE-140 (Esophageal Squamous Cell Carcinoma)
Summary of the method: as §1

[8] = tested on: NCI-H1703 (Squamous Cell Lung Carcinoma)
Summary of the method: as §1

[9] = tested on: CA46 (Burkitt's Lymphoma)
Summary of the method: as §1

769-P (Kidney Carcinoma) = tested on: 769-P (Kidney Carcinoma)
Summary of the method: as §1

[10] = tested on: NCI-H441 (Lung Adenocarcinoma)
Summary of the method: as §1

[11] = tested on: JHH-2 (Hepatocellular Carcinoma)
Summary of the method: as §1

[12] = tested on: NCI-H716 (Colorectal Carcinoma)
Summary of the method: as §1

[13] = tested on: G-402 (Other Solid Carcinomas)
Summary of the method: as §1

[14] = tested on: CGTH-W-1 (Thyroid Gland Carcinoma)
Summary of the method: as §1

A101D (Melanoma) = tested on: A101D (Melanoma)
Summary of the method: as §1

A204 (Rhabdomyosarcoma) = tested on: A204 (Rhabdomyosarcoma)
Summary of the method: as §1

[15] = tested on: JVM-2 (B-Cell Non-Hodgkin's Lymphoma)
Summary of the method: as §1

[16] = tested on: UACC-812 (Breast Carcinoma)
Summary of the method: as §1

SMILES	combination Emax [1]	combination Emax [2]	combination Emax (IM-9 (Non-Cancerous))	combination Emax [3]	combination Emax [4]	combination Emax [5]	combination Emax [6]	combination Emax [7]	combination Emax [8]	combination Emax [9]	combination Emax (769-P (Kidney Carcinoma))	combination Emax [10]	combination Emax [11]	combination Emax [12]	combination Emax [13]	combination Emax [14]	combination Emax (A101D (Melanoma))	combination Emax (A204 (Rhabdomyosarcoma))	combination Emax [15]	combination Emax [16]
NC1(C(=O)N[C@@H](CCO)c2ccc(Cl)cc2)CCN(c2ncnc3[nH]ccc23)CC1 [Capivasertib] + CC(C)n1c(=O)n(C)c2cnc3cc(F)c(-c4ccc(OCCCN5CCCCC5)nc4)cc3c21 [AZD1390] (first compound max 10 µM, 7x7, partner max 0.3 µM)	0.643	0.331	0.577	0.818	0.49	0.299	0.318	0.732	0.548	0.23	0.34	0.252	0.539	0.45	0.398	0.357	0.46	0.382	0.707	
CCc1c2c(nc3ccc(O)cc13)-c1cc3c(c(=O)n1C2)COC(=O)[C@]3(O)CC [SN-38] + O=C(c1cc(Cc2n[nH]c(=O)c3ccccc23)ccc1F)N1CCN(C(=O)C2CC2)CC1 [Olaparib] (first compound max 0.3 µM, 7x7, partner max 10 µM)	0.777	0.942	1	0.637	0.99	0.794	0.665		0.882		0.734	0.709	0.618		0.829	0.768	0.757		0.934	0.504
NC1(C(=O)N[C@@H](CCO)c2ccc(Cl)cc2)CCN(c2ncnc3[nH]ccc23)CC1 [Capivasertib] + Cn1cnc2c(F)c(Nc3ccc(Br)cc3Cl)c(C(=O)NOCCO)cc21 [Selumetinib] (first compound max 10 µM, 7x7, partner max 10 µM)	0.828	1	0.874	0.987	0.763	0.464	0.197	0.873	0.606	0.2	0.426	0.351	0.674	0.783	0.513	0.47	0.785	0.498	0.737	
CS(=O)(=O)CCNCc1ccc(-c2ccc3ncnc(Nc4ccc(OCc5cccc(F)c5)c(Cl)c4)c3c2)o1 [Lapatinib] + C[C@@H](Oc1cc(-c2cnn(C3CCNCC3)c2)cnc1N)c1c(Cl)ccc(F)c1Cl [Crizotinib] (first compound max 10 µM, 7x7, partner max 10 µM)	0.98	0.989	0.991	1	0.994	0.671	0.255	0.881	0.746	0.861	0.966	0.6	0.882	0.837	0.879	0.853	0.971	0.498	0.918	
CS(=O)(=O)CCNCc1ccc(-c2ccc3ncnc(Nc4ccc(OCc5cccc(F)c5)c(Cl)c4)c3c2)o1 [Lapatinib] + NC1(c2ccc(-c3nc4ccn5c(=O)[nH]nc5c4cc3-c3ccccc3)cc2)CCC1 [MK-2206] (first compound max 10 µM, 7x7, partner max 10 µM)	0.909	0.983	0.964		0.981		0.87		0.756		0.978	0.473	0.9			0.894	0.967			
NC1(C(=O)N[C@@H](CCO)c2ccc(Cl)cc2)CCN(c2ncnc3[nH]ccc23)CC1 [Capivasertib] + COc1nnc2ccc(N3CCC(c4ccc(OCCN5CCN(C)C(=O)[C@H]5C)cc4)CC3)nn12 [AZD5153] (first compound max 10 µM, 7x7, partner max 1 µM)	0.873	0.979	0.811	0.905	0.838	0.358	0.497	0.857	0.733	0.644	0.729	0.379	0.605	0.616	0.723	0.408	0.66	0.517	0.79	
Cc1c2c(nn1C)CSCc1cc(n(C)n1)CSc1cc(c3ccccc3c1)OCCCc1c(C(=O)O)n(C)c3c-2c(Cl)ccc13 [AZD5991] + CC1(C)CCC(CN2CCN(c3ccc(C(=O)NS(=O)(=O)c4ccc(NCC5CCOCC5)c([N+](=O)[O-])c4)c(Oc4cnc5[nH]ccc5c4)c3)CC2)=C(c2ccc(Cl)cc2)C1 [Venetoclax] (first compound max 1 µM, 7x7, partner max 1 µM)	0.817	0.447	1	0.74	0.181	0.162	0.45	0.485		0.118	0.122	0.214	0.218	0.176	0.926	0.257	0.989	0.513	0.639	0.694
CC(=O)c1c(C)c2cnc(Nc3ccc(N4CCNCC4)cn3)nc2n(C2CCCC2)c1=O [Palbociclib] + Cc1c2c(nn1C)CSCc1cc(n(C)n1)CSc1cc(c3ccccc3c1)OCCCc1c(C(=O)O)n(C)c3c-2c(Cl)ccc13 [AZD5991] (first compound max 10 µM, 7x7, partner max 1 µM)	0.912	0.231	0.714	0.46	0.305	0.236	0.848	0.301	0.815	0.304	0.786	0.302	0.368	0.356	0.839	0.176	0.588	0.37	0.704	
NC1(C(=O)N[C@@H](CCO)c2ccc(Cl)cc2)CCN(c2ncnc3[nH]ccc23)CC1 [Capivasertib] + CCN(CCO)CCCOc1ccc2c(Nc3cc(CC(=O)Nc4cccc(F)c4)[nH]n3)ncnc2c1 [AZD2811] (first compound max 10 µM, 7x7, partner max 1 µM)	0.812	0.679	0.933	0.897	0.623	0.384	0.533	0.829	0.678	0.362	0.422	0.317	0.587	0.457	0.658	0.354	0.552	0.489	0.755	
CC(=O)c1c(C)c2cnc(Nc3ccc(N4CCNCC4)cn3)nc2n(C2CCCC2)c1=O [Palbociclib] + Cn1cnc2c(F)c(Nc3ccc(Br)cc3Cl)c(C(=O)NOCCO)cc21 [Selumetinib] (first compound max 10 µM, 7x7, partner max 10 µM)	0.825	1	0.906	0.557	0.66	0.167	0.372	0.188	0.584	0.345	0.809	0.327	0.463	0.539	0.462	0.14	0.588	0.399	0.774	
CC(=O)c1c(C)c2cnc(Nc3ccc(N4CCNCC4)cn3)nc2n(C2CCCC2)c1=O [Palbociclib] + CC1(C)CCC(CN2CCN(c3ccc(C(=O)NS(=O)(=O)c4ccc(NCC5CCOCC5)c([N+](=O)[O-])c4)c(Oc4cnc5[nH]ccc5c4)c3)CC2)=C(c2ccc(Cl)cc2)C1 [Venetoclax] (first compound max 10 µM, 7x7, partner max 1 µM)	0.721	0.153	0.776	0.217	0.189	0.119	0.621	0.199	0.486	0.355	0.814	0.224	0.357	0.475	0.442	0.122	0.424	0.308	0.762	
NC1(C(=O)N[C@@H](CCO)c2ccc(Cl)cc2)CCN(c2ncnc3[nH]ccc23)CC1 [Capivasertib] + CC(=O)c1c(C)c2cnc(Nc3ccc(N4CCNCC4)cn3)nc2n(C2CCCC2)c1=O [Palbociclib] (first compound max 10 µM, 7x7, partner max 10 µM)	0.77	0.295	0.706	0.858	0.712	0.374	0.673	0.78	0.609	0.411	0.773	0.348	0.608	0.49	0.605	0.349	0.581	0.517	0.823	
NC1(C(=O)N[C@@H](CCO)c2ccc(Cl)cc2)CCN(c2ncnc3[nH]ccc23)CC1 [Capivasertib] + C[C@@H]1COCCN1C2=NC(=NC(=C2)C3(CC3)[S@](=N)(=O)C)C4=C5C=CNC5=NC=C4 [AZD6738] (first compound max 10 µM, 7x7, partner max 10 µM)	0.86	0.987	0.979	0.979	0.869	0.692	0.318	0.867	0.928	0.474	0.88	0.448	0.769	0.555	0.771	0.398	0.803	0.467	0.864	
